Assay results taken from patent US20040023910A1, “Use of cyr61 in the treatment and diagnosis of human uterine leiomyomas” (priority 2003, published 2004).

Legend:
[1] = test system: Cyr61 in leiomyoma tissues; assay: Ex vivo treatment of leiomyoma explants with sex steroids and growth factors, Cyr61 mRNA by Northern blotting; type: cell-based, human; settings: leiomyoma explants ex vivo (n=8), 10 nM E2 or 10 ng/ml bFGF, 1 h
Text: (§1) Study subjects and tissue procurement Uterine leiomyomas and matched myometrial specimens were obtained according to protocols approved by the Institutional Review Boards following routine hysterectomy at the Department of Obstetrics and Gynecology, Pennsylvania Hospital. Tissue samples were provided from patients between the ages of 38 to 53 (median age=45) who were not on hormone replacement therapy nor prescribed gonadotropin releasing hormone agonists (n=38). All but one patient had experienced normal menstrual cycles prior to surgery. Tissue specimens were immediately frozen in liquid nitrogen following hysterectomies for total RNA isolation or fixed in 10% neutral-buffered formalin for in situ hybridization. Tissues for ex vivo culturing were placed in phenol-red free DMEM/Ham's F12 media (Gibco BRL, Rockville, Md.) containing 100 U/ml penicillin, […], and 250 ng/ml amphotericine B as a fungizone and transported on ice.
Northern blotting for Cyr61 and ER a Total cellular RNA was isolated from myometrial and leiomyoma tissue homogenates by guanidium isothiocynate lysis followed by phenol/chloroform extraction. Subsequently, total cellular RNA (20 μg) was subjected to electrophoresis in a 1% agarose gel containing 1 M formaldehyde. […]

[2] = test system: Cyr61 in murine and human fibroblasts; settings: Nathans et al. 1988; cited from earlier work
[3] = test system: Cyr61 transcript levels in myometrial tissue; assay: Ex vivo treatment of myometrial explants with sex steroids and growth factors, Cyr61 mRNA by Northern blotting; type: cell-based, human
Text: as §1
Northern blotting for Cyr61 and ER a Total cellular RNA was isolated from myometrial and leiomyoma tissue homogenates by guanidium isothiocynate lysis followed by phenol/chloroform extraction. Subsequently, total cellular RNA (20 μg) was subjected to electrophoresis in a 1% agarose gel containing 1 M formaldehyde. Separated RNA transcripts were transferred onto nylon membranes by […] and subsequently prehybridized at 60° C. in RapidHyb hybridization solution (Amersham, Arlington Heights, Ill.). A 0.41 kb human Cyr61 cDNA fragment was radiolabeled with [α-^32P]-dCTP (3,000 Ci/mmol) using the random-primer technique (Rediprime II, Amersham) and used as the hybridization probe. The radiolabeled probe (1×10^6 cpm/ml) was hybridized to membranes for 4 h at 60° C. Membranes were washed twice in 1×SSPE (0.15 M NaCl, […], and 0.01 M sodium phosphate, pH 7.4) and 0.1% SDS for 15 min at 25° C., followed by a final wash in 0.1×SSPE and 0.1% SDS for 5 min at 60° C. For estrogen receptor α (ERα) expression, membranes were reprobed with a 1.96 kb human ERα cDNA (1.96 kb full length coding region) that was radiolabeled with [α-^32P]-dCTP (3,000 Ci/mmol), hybridized and washed as described above. Relative levels of Cyr61 were normalized to glyceraldehyde-3-phosphate dehydrogenase (GAPDH) after reprobing membranes with a ^32P-radiolabeled oligonucleotide according to manufacturers protocol (endlabeling kit, GibcoBRL, Rockville, Md.).
Tissue treatment with sex steroids and growth factors Tissue specimens obtained as described above were immediately minced into 1-2 mm pieces using sterilized scalpels and forceps and placed in phenol-red free DMEM/Ham's F12 containing antifingal and antibiotic agents only. […]

bFGF: basic fibroblast growth factor, purchased from R & D Systems, Inc.
upregulation of Cyr61 in leiomyoma tissues [1]: neither E2 nor bFGF was able to upregulate Cyr61
induction of Cyr61 [2]: induces Cyr61

C[C@]12CC[C@@H]3c4ccc(O)cc4CC[C@H]3[C@@H]1CC[C@@H]2O [E2, 17β-estradiol]
increase in Cyr61 transcript levels ([3]; myometrial explants ex vivo (n=8), 1 h, 10 nM E2, 10 ng/ml bFGF or serum, normalized to GAPDH): greater than 2 fold
upregulation of Cyr61 in leiomyoma tissues [1]: neither E2 nor bFGF was able to upregulate Cyr61

C[C@]12CC[C@@H]3c4ccc(O)cc4C[C@@H](CCCCCCCCC[S+]([O-])CCCC(F)(F)C(F)(F)F)[C@H]3[C@@H]1CC[C@@H]2O (stereo partly shown) [ICI 182,780]
inhibition of E2 mediated induction of Cyr61 ([3]; myometrial explants ex vivo, combination of 10 nM E2 and 1 μM ICI 182,780, 1 h): completely inhibited

CCC(=O)[C@@]1(C)CC[C@H]2[C@@H]3CCC4=CC(=O)CCC4=C3CC[C@@]21C [R5020]
effect on Cyr61 expression ([3]; myometrial explants ex vivo, 10 nM R5020, 1 h): no effect on Cyr61 expression
synergy with E2 on Cyr61 expression ([3]; myometrial explants ex vivo, combination of 10 nM E2 and 10 nM R5020, 1 h): nor did it synergize with E2
